Nine compounds from patent US8372845B2, “Pyrazine derivatives as enac blockers” (Novartis AG, priority 2010, dated 2013) can be followed below.

Data set [1] is described as follows: Stability in human plasma. Format: in vitro ADME. The note with it: pooled human plasma (lithium heparin), 1 μM compound, 37° C., 1 hour incubation. The procedure: The stability of the compounds of the invention in human plasma may be measured as follows:
Stability in Human Plasma
Blood was taken from healthy volunteers in lithium heparin tubes and plasma was prepared by centrifugal separation of blood cells at 1500 g. Plasma from at least 3 individuals was pooled and used for compound stability determination.
Compounds were prepared in 100% DMSO at a concentration of 10 mM and serially diluted to a concentration of 100 μM. Incubations were performed at a final concentration of 1 μM and were initiated by addition of 3 μl of 100 μM compound stock solution into 297 μl plasma, pre-warmed in a water bath to 37° C., followed by brief vortex mixing. 50 μl aliquots of plasma were removed at 4 timepoints over a 1 hour incubation period and quenched immediately by protein precipitation achieved by addition of the aliquot of plasma to a pre-prepared 96 well plate containing 150 μl of acetonitrile containing an appropriate internal standard. Acetonitrile quenched samples were vortex mixed followed by centrifugation for 20 minutes at 1500 g to remove the precipitated proteins. Initial compound levels (at time=0 minutes) was established by spiking compound into pre-quenched plasma at the same concentration as used in the incubation. The supernatant was then removed, diluted 1:1 with water and analysed for compound remaining by liquid chromatography-tandem mass spectrometry (Waters Acquity HPLC, Applied Biosystems API4000). The plasma elimination rate constant of the compound was calculated by fitting the peak area ratio of compound:internal standard to an exponential decay function and the half life calculated by division of the natural log of 2 by the elimination rate constant (Microsoft Excel).

Data set [2] deals with T1, epithelial sodium channel (ENaC) (Homo sapiens, UniProt P37088+P51168+P51170).
T1 construct: host or cells: primary Human Bronchial Epithelial cells (HBECs), differentiated at air-liquid interface
T1 sequence (P37088 1-669): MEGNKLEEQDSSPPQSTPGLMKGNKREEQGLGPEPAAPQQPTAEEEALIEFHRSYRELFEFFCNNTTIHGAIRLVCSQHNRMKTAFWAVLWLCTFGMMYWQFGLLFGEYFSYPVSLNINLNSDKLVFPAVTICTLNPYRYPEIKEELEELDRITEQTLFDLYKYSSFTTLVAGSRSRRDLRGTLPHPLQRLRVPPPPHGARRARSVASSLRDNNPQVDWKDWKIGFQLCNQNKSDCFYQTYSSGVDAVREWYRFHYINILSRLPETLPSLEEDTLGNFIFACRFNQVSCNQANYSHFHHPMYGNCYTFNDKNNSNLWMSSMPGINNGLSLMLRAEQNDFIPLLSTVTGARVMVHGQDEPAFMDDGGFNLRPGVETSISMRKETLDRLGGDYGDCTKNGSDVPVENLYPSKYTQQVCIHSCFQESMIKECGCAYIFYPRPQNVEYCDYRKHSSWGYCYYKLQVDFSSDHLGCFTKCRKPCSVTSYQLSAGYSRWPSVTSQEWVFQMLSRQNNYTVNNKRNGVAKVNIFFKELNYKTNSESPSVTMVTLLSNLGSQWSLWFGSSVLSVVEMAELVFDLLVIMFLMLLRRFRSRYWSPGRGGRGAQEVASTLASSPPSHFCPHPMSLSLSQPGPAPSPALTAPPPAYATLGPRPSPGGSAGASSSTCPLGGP
T1 sequence (P51168 1-640): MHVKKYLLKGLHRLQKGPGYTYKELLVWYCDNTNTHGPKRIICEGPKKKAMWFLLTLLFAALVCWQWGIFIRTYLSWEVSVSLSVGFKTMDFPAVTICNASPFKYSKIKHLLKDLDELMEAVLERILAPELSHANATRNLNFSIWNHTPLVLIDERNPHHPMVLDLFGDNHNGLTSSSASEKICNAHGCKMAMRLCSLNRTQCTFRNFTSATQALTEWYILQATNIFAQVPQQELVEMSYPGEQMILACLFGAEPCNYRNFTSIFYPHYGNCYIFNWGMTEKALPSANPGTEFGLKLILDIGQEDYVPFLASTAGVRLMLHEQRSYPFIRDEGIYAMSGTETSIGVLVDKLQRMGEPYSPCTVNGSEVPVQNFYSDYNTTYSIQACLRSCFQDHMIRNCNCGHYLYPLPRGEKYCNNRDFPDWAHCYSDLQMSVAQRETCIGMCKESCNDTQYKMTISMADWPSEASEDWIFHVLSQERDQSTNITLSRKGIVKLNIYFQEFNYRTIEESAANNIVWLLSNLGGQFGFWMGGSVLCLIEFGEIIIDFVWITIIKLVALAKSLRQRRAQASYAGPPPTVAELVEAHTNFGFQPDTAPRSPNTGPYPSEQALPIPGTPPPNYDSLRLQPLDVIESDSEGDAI
T1 sequence (P51170 1-649): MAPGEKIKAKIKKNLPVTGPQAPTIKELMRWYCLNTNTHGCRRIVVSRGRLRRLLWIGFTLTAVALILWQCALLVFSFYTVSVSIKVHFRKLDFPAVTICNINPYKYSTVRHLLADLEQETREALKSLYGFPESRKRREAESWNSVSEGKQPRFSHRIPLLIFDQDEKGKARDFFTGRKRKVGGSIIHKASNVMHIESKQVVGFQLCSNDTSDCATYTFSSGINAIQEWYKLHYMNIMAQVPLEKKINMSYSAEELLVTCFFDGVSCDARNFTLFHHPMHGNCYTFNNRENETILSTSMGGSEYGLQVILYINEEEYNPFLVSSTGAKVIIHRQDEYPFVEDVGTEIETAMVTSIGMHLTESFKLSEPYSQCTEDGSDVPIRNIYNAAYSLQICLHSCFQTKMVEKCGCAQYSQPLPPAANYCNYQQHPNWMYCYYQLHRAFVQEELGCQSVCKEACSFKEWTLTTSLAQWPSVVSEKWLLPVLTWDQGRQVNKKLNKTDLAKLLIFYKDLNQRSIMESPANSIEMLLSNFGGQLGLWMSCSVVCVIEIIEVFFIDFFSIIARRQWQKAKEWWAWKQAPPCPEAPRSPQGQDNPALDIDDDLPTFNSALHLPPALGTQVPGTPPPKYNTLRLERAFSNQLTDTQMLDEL
The data set is described as follows: Short circuit current (ISC) measurements in Human Bronchial Epithelial cells (HBEC-ENaC). Conditions: inhibition of amiloride-sensitive ISC, HBECs at air-liquid interface, Ussing chamber, apical addition. The class given is cell-based. The procedure:
Human Bronchial Epithelial cells (HBECs) (Cambrex) were cultured under air-liquid interface conditions to provide a well differentiated mucociliary phenotype.
Medium was changed every 48 hours until cells were 90% confluent. […] Cells were maintained submerged for the first 7 days in culture, after which time they were exposed to an apical air interface for the remainder of the culture period. At this time, media was changed to DMEM:F12 media containing 2% v/v Ultroser G for the remainder of culture. Amphotericin B was removed from all media 3 feeds prior to use in the Ussing Chambers. Cells were used between days 7 and 21 after establishment of the apical-air interface. At all stages of culture, cells were maintained at 37° C. in 5% CO2 in an air incubator.
Short Circuit Current (ISC) Measurements
Snapwell inserts were mounted in Vertical Diffusion Chambers (Costar) and were bathed with continuously gassed Ringer solution (5% CO2 in O2; pH 7.4) maintained at 37° C. containing (in mM): 120 NaCl, 25 NaHCO3, 3.3 KH2PO4, 0.8 K2HPO4, 1.2 CaCl2, 1.2 MgCl2, and 10 glucose. The solution osmolarity was between 280 and 300 mOsmol/kg H2O for all physiological salt solutions used. Cells were voltage clamped to 0 mV (model EVC4000; WPI). RT was measured by applying a 1- or 2-mV pulse at 30-s intervals and calculating RT by Ohm's law. Data were recorded using a PowerLab workstation (ADInstruments).
Test compounds were prepared as a 10 mM stock solution in DMSO (95%). Serial 3-fold dilutions were freshly prepared in an appropriate vehicle (distilled H2O or Ringers solution). The initial concentration was added to the apical chamber as a 1000× concentrate in 5 μL, resulting in a final 1× concentration the 5 mL volume of the Ussing chamber. Subsequent additions of compound were added in a 3.3 μL volume of the 1000× serially diluted stock solution. At the completion of the concentration-response experiment, amiloride (10 μM) was added into the apical chamber to enable the total amiloride-sensitive current to be measured. An amiloride control IC50 was established at the start of each experiment.
Results are expressed as the mean % inhibition of the amiloride-sensitive ISC. […] Cell inserts were typically run in duplicate and the IC50 calculated on the mean % inhibition data.

In the case of `Nc1nc(N)c(C(=O)/N=C2\NCC3(CCN(C(=O)CCc4ccc(OCC(=O)OCCN5CCCCC5=O)c(Cl)c4)CC3)N2)nc1Cl` [Example 4.1, [2-Chloro-4-(3-{2-[(E)-3,5-diamino-6-chloro-pyrazine-2-carbonylimino]-1,3,8-triaza-spiro[4.5]dec-8-yl}-3-oxo-propyl)-phenoxy]-acetic acid 2-(2-oxo-piperidin-1-yl)ethyl ester], in data set [1], the half-life (usually the time in which the quantity being followed falls by half) at 1 μM worked out at 3 min. Moreover, the IC50 – broadly, the midpoint of a concentration-inhibition curve – in data set [2] turned out to be 132 nM. For the compound `Nc1nc(N)c(C(=O)/N=C2\NCC3(CCN(C(=O)CCc4ccc(OCC(=O)OCC(=O)N5CCCCC5)cc4)CC3)N2)nc1Cl` [Example 2.4, [4-(3-{2-[(E)-3,5-Diamino-6-chloro-pyrazine-2-carbonylimino]-1,3,8-triaza-spiro[4.5]dec-8-yl}-3-oxo-propyl)-phenoxy]-acetic acid 2-oxo-2-piperidin-1-yl-ethyl ester], in data set [2], inhibition was half-maximal at 110 nM (IC50).

For `CCN(CC)C(=O)COC(=O)COc1ccc(CCC(=O)N2CCC3(CC2)CN/C(=N\C(=O)c2nc(Cl)c(N)nc2N)N3)cc1` [Example 2.3, [4-(3-{2-[(E)-3,5-Diamino-6-chloro-pyrazine-2-carbonylimino]-1,3,8-triaza-spiro[4.5]dec-8-yl}-3-oxo-propyl)-phenoxy]-acetic acid diethylcarbamoylmethyl ester], in data set [2], half-maximal inhibition (IC50) required 89 nM. The compound `CCCN(CCC)C(=O)COC(=O)CCNC(=O)Nc1cccc(C(=O)N2CCC3(CC2)CN/C(=N\C(=O)c2nc(Cl)c(N)nc2N)N3)c1` [Example 5.1, 3-[3-(3-{2-[(E)-3,5-Diamino-6-chloro-pyrazine-2-carbonylimino]-1,3,8-triaza-spiro[4.5]decane-8-carbonyl}-phenyl)-ureido]-propionic acid dipropylcarbamoylmethyl ester] showed a half-life at 1 μM in data set [1] of 2 min. In data set [2], this compound had an IC50 of 31 nM.

On to `Nc1nc(N)c(C(=O)/N=C2\NCC3(CCN(C(=O)CCc4ccc(OCC(=O)OCC(=O)OC5CCCCC5)cc4)CC3)N2)nc1Cl` [Example 1.2, [4-(3-{2-[(E)-3,5-Diamino-6-chloro-pyrazine-2-carbonylimino]-1,3,8-triaza-spiro[4.5]dec-8-yl}-3-oxo-propyl)-phenoxy]-acetic acid cyclohexyl oxycarbonylmethyl ester], for which the half-life at 1 μM in data set [1] came to 3 min. The compound also registered an IC50 in data set [2] of 10 nM. Take `Nc1nc(N)c(C(=O)/N=C2\NCC3(CCN(C(=O)c4cccc(S(=O)(=O)NCCC(=O)OCC(=O)OC5CCCCC5)c4)CC3)N2)nc1Cl` [Example 1.3, 3-(3-{2-[(E)-3,5-Diamino-6-chloro-pyrazine-2-carbonylimino]-1,3,8-triaza-spiro[4.5]decane-8-carbonyl}-benzenesulfonylamino)-propionic acid cyclohexyloxy carbonylmethyl ester]: in data set [1], the half-life at 1 μM is 4 min. In data set [2], this compound displayed an IC50 of 3 nM.

In turn, `CN(C)C(=O)COC(=O)COc1ccc(CCC(=O)N2CCC3(CC2)CN/C(=N\C(=O)c2nc(Cl)c(N)nc2N)N3)cc1` [Example 1.4, [4-(3-{2-[(E)-3,5-Diamino-6-chloro-pyrazine-2-carbonylimino]-1,3,8-triaza-spiro[4.5]dec-8-yl}-3-oxo-propyl)-phenoxy]-acetic acid dimethylcarbamoylmethyl ester] returned a concentration for half-maximal inhibition (IC50) in data set [2] of 302 nM. In turn, `CN(CCO)C(=O)COC(=O)COc1ccc(CCC(=O)N2CCC3(CC2)CN/C(=N/C(=O)c2nc(Cl)c(N)nc2N)N3)cc1` [Example 1.1, [4-(3-{2-[(Z)-3,5-Diamino-6-chloro-pyrazine-2-carbonylimino]-1,3,8-triaza-spiro[4.5]dec-8-yl}-3-oxo-propyl)-phenoxy]-acetic acid [(2-hydroxy-ethyl)-methyl-carbamoyl]-methyl ester] returned an IC50 in data set [2] of 419 nM.

`Nc1nc(N)c(C(=O)/N=C2\NCC3(CCN(C(=O)CCc4ccc(OCC(=O)OCC(=O)OCc5ccccc5)cc4)CC3)N2)nc1Cl` [Example 2.2, [4-(3-{2-[(E)-3,5-Diamino-6-chloro-pyrazine-2-carbonylimino]-1,3,8-triaza-spiro[4.5]dec-8-yl}-3-oxo-propyl)-phenoxy]-acetic acid benzyloxycarbonylmethyl ester] returned an IC50 in data set [2] of 12 nM.
